The values that follow are results of earlier work, collected in patent US5718912A, “Muscarine agonists” (Merck & Co., Inc., priority 1996, dated 1998).

SMILES strings stand for the structures. “Also recorded” adds a separate entry of the source.

For the series, the system named is intraocular pressure.

Take `CC[C@@H]1C(=O)OC[C@@H]1Cc1cncn1C` [pilocarpine]: where the note is “pilocarpine therapy”, the side effects result is “miosis (decrease of pupil size); also recorded: systemic CNS effects”. Moreover, the “effect on intraocular pressure” value (topical administration) is listed as “lowers intraocular pressure by increasing outflow”.
